For data set [1], the system named is Human immunodeficiency virus 1. The data set can be described thus: Antiviral activity against HIV1 expressing reverse transcriptase D67N/K70R/T215F/K219E/M184V mutant infected in HEK293 cells assessed as inhibition of virus replication after 72 hrs. In kind it is functional, organism-based. To be noted: Human immunodeficiency virus 1, HEK293, 72 h.
The test system of data set [2] is Human immunodeficiency virus 1. The data set can be described thus: Antiviral activity against HIV1 subtype C isolate 7 infected in HEK293 cells assessed as inhibition of virus replication after 72 hrs. Format: functional, organism-based. To be noted: Human immunodeficiency virus 1, subtype C isolate 7, HEK293, 72 h.
For data set [3], the system named is Human immunodeficiency virus 1. The data set can be described thus: Antiviral activity against HIV1 NL4-3 infected in HEK293 cells assessed as inhibition of virus replication after 72 hrs. Format: functional, organism-based. To be noted: Human immunodeficiency virus 1, NL4-3, HEK293, 72 h.
Data set [4] deals with HEK293. The data set can be described thus: Cytotoxicity against human HEK293 cells at 100 uM. Format: cell-based. The note with it: hek293, 100 µM.
For data set [5], the system named is Human immunodeficiency virus 1. The data set can be described thus: Antiviral activity against HIV1 subtype B isolate 3 infected in HEK293 cells assessed as inhibition of virus replication after 72 hrs. Format: functional, organism-based. The note with it: Human immunodeficiency virus 1, subtype B isolate 3, HEK293, 72 h.
Data set [6] concerns Human immunodeficiency virus 1. The data set can be described thus: Antiviral activity against HIV1 subtype B isolate 4 infected in HEK293 cells assessed as inhibition of virus replication after 72 hrs. Format: functional, organism-based. To be noted: Human immunodeficiency virus 1, HEK293, 72 h.
For data set [7], the system named is Human immunodeficiency virus 1. The data set can be described thus: Antiviral activity against HIV1 subtype A isolate 1 infected in HEK293 cells assessed as inhibition of virus replication after 72 hrs. Format: functional, organism-based. The note with it: Human immunodeficiency virus 1, HEK293, 72 h.
Data set [8] has as its system Human immunodeficiency virus 1. The data set can be described thus: Antiviral activity against HIV1 expressing reverse transcriptase K103N/Y181C/G190A mutant infected in HEK293 cells assessed as inhibition of virus replication after 72 hrs. In kind it is functional, organism-based. To be noted: Human immunodeficiency virus 1, HEK293, 72 h.
Data set [9] deals with Human immunodeficiency virus 1. The data set can be described thus: Antiviral activity against HIV1 subtype D isolate 8 infected in HEK293 cells assessed as inhibition of virus replication after 72 hrs. In kind it is functional, organism-based. To be noted: Human immunodeficiency virus 1, subtype D isolate 8, HEK293, 72 h.
Data set [10] concerns Human immunodeficiency virus 1. The data set can be described thus: Antiviral activity against HIV1 subtype BF isolate 5 infected in HEK293 cells assessed as inhibition of virus replication after 72 hrs. In kind it is functional, organism-based. To be noted: Human immunodeficiency virus 1, subtype BF isolate 5, HEK293, 72 h.
In data set [11] the test system is Human immunodeficiency virus 1. The data set can be described thus: Antiviral activity against HIV1 subtype C isolate 6 infected in HEK293 cells assessed as inhibition of virus replication after 72 hrs. Format: functional, organism-based. The note with it: Human immunodeficiency virus 1, HEK293, 72 h.
Data set [12] deals with Human immunodeficiency virus 1. The data set can be described thus: Antiviral activity against HIV1 subtype A isolate 2 infected in HEK293 cells assessed as inhibition of virus replication after 72 hrs. In kind it is functional, organism-based. To be noted: Human immunodeficiency virus 1, subtype A isolate 2, HEK293, 72 h.
Data set [13] concerns HEK293. The data set can be described thus: Cytotoxicity against human HEK293 cells at 600 uM. Format: cell-based. To be noted: hek293, 600 µM.
Data set [14] concerns HEK293. The data set can be described thus: Cytotoxicity against human HEK293 cells at 2000 uM. Format: cell-based. The note with it: hek293, 2000 µM.
A short description of data set [15]: Cmax in human at 600 mg. In kind it is ADME, organism-based. The arrangement: dose 600 mg. To be noted: in vivo.

One may read the EC50 as the concentration at which the effect is half-maximal. `C=C1[C@H](CO)[C@@H](O)C[C@@H]1n1cnc2c(=O)[nH]c(N)nc21.O` [ENTECAVIR]: the EC50 in data set [1] is greater than 100 µM; in [2], 9.95 µM; in [3], 12.6 µM; in [5], 15.1 µM; in data set [6], 13.5 µM; in data set [7], 12.5 µM. Also, the EC50 in data set [8] amounted to 11.7 µM; in data set [9], 7.62 µM; in [10], 13.6 µM; in data set [11] it was 9.51 µM; in data set [12] it was 13.2 µM. In the data set on HEK293 [4], the Activity result is listed as “Non-toxic”.

As for `Nc1ccn([C@@H]2CS[C@H](CO)O2)c(=O)n1` [LAMIVUDINE], the EC50 in data set [1] is greater than 300 µM; in data set [2] it was 4.06 µM; in data set [3], 4.68 µM; in data set [5], 4.78 µM; in [6] it was 5.43 µM; in data set [7], 3.54 µM. Moreover, the EC50 came to 7.16 µM in data set [8]; 3.25 µM in [9]; 4.24 µM in [10]; 3.9 µM in data set [11]; 4.48 µM in data set [12].

What is called Cmax is the highest concentration seen after dosing. For the compound `Cc1cn([C@@H]2C[C@@H](O)[C@H](CO)O2)c(=O)[nH]c1=O` [TELBIVUDINE], the EC50 in [1], in [2], in data set [3], in data set [5], in [6] and in data set [7] was greater than 600 µM each time. Moreover, the 50% effective concentration (EC50) in [8], in [9], in data set [10], in data set [11] and in data set [12] was greater than 600 µM in each case. Further, the Activity result in the data set on HEK293 [13] and with HEK293 [14] was “Non-toxic” throughout. This compound also yielded a Cmax in [15] of 13.2 µM.

The values above are taken from ChEMBL document CHEMBL1255476, “Telbivudine exhibits no inhibitory activity against HIV-1 clinical isolates in vitro” (Antimicrob Agents Chemother, 2010).
